Test: an = ratio of the nth substance listed, in mol/kg
Conditions: 100 kPa, Liquid; for electrical conductivity: Alternating current cell with electrodes

O=S(=O)([O-])[O-].[Mn+2] [manganese(II) sulfate] + O
Conditions | electrical conductivity, 278.15 K [S/m] | electrical conductivity, 283.15 K [S/m] | electrical conductivity, 288.15 K [S/m] | electrical conductivity, 293.15 K [S/m] | electrical conductivity, 298.15 K [S/m] | electrical conductivity, 303.15 K [S/m] | electrical conductivity, 308.15 K [S/m] | mass density, 298.15 K [kg/m3]
a1 = 0.00499 | 0.0524 | 0.06 | 0.068 | 0.0761 | 0.0844 | 0.0928 | 0.101 | 997.79
a1 = 0.00999 | 0.0922 | 0.106 | 0.119 | 0.134 | 0.148 | 0.162 | 0.177 | 998.55
a1 = 0.01997 | 0.16 | 0.183 | 0.207 | 0.231 | 0.255 | 0.279 | 0.303 | 1000.02
a1 = 0.05028 | 0.333 | 0.38 | 0.428 | 0.477 | 0.526 | 0.575 | 0.622 | 1004.5
a1 = 0.1005 | 0.575 | 0.656 | 0.739 | 0.822 | 0.905 | 0.987 | 1.07 | 1011.91
a1 = 0.1991 | 1.01 | 1.15 | 1.29 | 1.44 | 1.58 | 1.72 | 1.86 | 1026.55
a1 = 0.3159 | 1.39 | 1.59 | 1.78 | 1.98 | 2.18 | 2.37 | 2.56 | 1044.23
a1 = 0.4963 | 1.93 | 2.2 | 2.47 | 2.75 | 3.03 | 3.3 | 3.57 | 1072.29
a1 = 0.7442 | 2.5 | 2.85 | 3.21 | 3.57 | 3.93 | 4.29 | 4.65 | 1112.53
a1 = 0.9865 | 2.95 | 3.36 | 3.79 | 4.22 | 4.65 | 5.08 | 5.5 | 1153.87
a1 = 1.208 | 3.07 | 3.51 | 3.97 | 4.44 | 4.91 | 5.38 | 5.85 | 1194.32
a1 = 1.384 | 3.1 | 3.57 | 4.04 | 4.53 | 5.03 | 5.52 | 6.02 | 1227.02
a1 = 1.653 | 2.98 | 3.44 | 3.93 | 4.43 | 4.95 | 5.46 | 5.98 | 1280.18
a1 = 1.826 | 2.78 | 3.25 | 3.72 | 4.21 | 4.72 | 5.23 | 5.75 | 1318.47
a1 = 2.082 | 2.41 | 2.84 | 3.29 | 3.76 | 4.25 | 4.74 | 5.24 | 1371.35
a1 = 2.189 | 2.19 | 2.6 | 3.02 | 3.47 | 3.93 | 4.41 | 4.89 | 1398.09
a1 = 2.434 | 1.6 | 1.93 | 2.28 | 2.66 | 3.06 | 3.48 | 3.9 | 1452.93

From the NIST ThermoML archive (doi:10.1021/je8001255)
